{"source": "patent US6352992B1", "about": "“Endothelin antagonist and beta receptor blocking agent as combined preparations” (Abbott Laboratories, priority 1997, dated 2002)", "system": "normotensive awake dogs", "assay": "Mean arterial blood pressure in normotensive awake dogs after oral administration", "type": "in vivo, beagle dogs", "details": "Compound A 10 mg/kg, bucindolol 0.1 mg/kg; for mean arterial blood pressure, change with respect to the initial value: combination 10 + 0.1 mg/kg, mean values", "method": "In a crossover design, the test substance was administered orally as a capsule to chronically instrumented male beagle dogs (approx 14 kg). The capsule either contained nothing (control N=5), compound A (10 mg/kg, N=10), bucindolol (0.1 mg/kg; N=5) or the combination bucindolol + compound A (0.1+10 mg/kg; N=5). In between the individual administrations, a washing phase of at least one week was observed. The systolic and the diastolic blood pressure were measured using a Statham Transducer P 23 Db, from which the mean arterial blood pressure was calculated. The blood pressure was recorded for 6 h (MI^2, Modular Instrumente, USA).\nDevelopment of the mean arterial blood pressure (mmHg, change with respect to the initial value) in normotensive awake dogs after oral administration of different substances, what is shown are the mean values"}
{"molecule": "CC(C)(Cc1c[nH]c2ccccc12)NCC(O)COc1ccccc1C#N", "note": "(stereo not shown) [Bucindolol, bucindolol]", "values": [{"measurement": "mean arterial blood pressure, change with respect to the initial value", "setting": "1h after oral capsule", "value": "−0.8", "unit": "mmHg"}, {"measurement": "mean arterial blood pressure, change with respect to the initial value", "setting": "2h after oral capsule", "value": "−3.8", "unit": "mmHg"}, {"measurement": "mean arterial blood pressure, change with respect to the initial value", "setting": "3h after oral capsule", "value": "−3.4", "unit": "mmHg"}, {"measurement": "mean arterial blood pressure, change with respect to the initial value", "setting": "4h after oral capsule", "value": "−3.8", "unit": "mmHg"}, {"measurement": "mean arterial blood pressure, change with respect to the initial value", "setting": "5h after oral capsule", "value": "−3.8", "unit": "mmHg"}, {"measurement": "mean arterial blood pressure, change with respect to the initial value", "setting": "6h after oral capsule", "value": "−1.4", "unit": "mmHg"}, {"measurement": "effect on blood pressure, in words", "setting": "oral capsule, recorded for 6 h, combination 0.1+10 mg/kg", "value": "does not decrease"}]}
